Measured values: patent US6960342B2, “Method for inhibiting pathogenic fungi in plants using Bacillus amyloliquefaciens” (National Taiwan University, priority 2002, dated 2005)

Tests used:
Format in all cases: in vivo
[1] = tested on: Botrytis elliptica; assay: B190 formulations on Botrytis elliptica infected lilies in greenhouse; conditions: B190 […] cfu/ml, 3 applications (10 days/interval), flusilazole 100 p.p.m., recorded ten days after the last application, scale 0 to 4
Description: Bacillus amyloliquefaciens B190 was cultured in a flask containing 1% rice chaff and 99% de-ion water. The flask was then positioned on a rotary shaker located in an incubator. B190 was incubated at 25±5° C. for 3 days. Thereafter, the B190-containing solution was filtered for application in the following experiments.
Different chemicals or adjuvants were added to the B190-containing filtrate for investigating their inhibitive capability on Botrytis elliptica infected lilies in greenhouse. The chemicals include 0.025% Ca(OH)2, 0.05% Na2CO3, 0.025% NH4NO3 and 0.025% K2HPO4. The adjuvants comprise 0.1% Tween 80 and 0.05% mineral oil.
Unformulated B. amyloliquefaciens B190 and 100 p.p.m. flusilazole were used as controls. In addition, uninoculated and inoculated lily plants with B. elliptica were also included as controls. Applications of these treatments were carried out when flowering tissues reached 30 to 50 mm in diameter. Treatments were applied three times with intervals of 10 days. Thereafter, 5 ml of B. elliptica spore suspension (1×10^3 conidia/ml) was inoculated on lily plants except the uninoculated control. Each different treatment had four replicates, and 5 lily plants were applied in every replicate. All treatments were arranged in a randomized complete block design. After inoculating B. elliptica for ten days, disease severity was scored as described above.

[2] = tested on: Botrytis elliptica; assay: Field trials, control of lily gray mold; disease severity; conditions: antagonist 1 × 10^5 cfu/ml or 100 ppm flusilazole, three applications, recorded 14 days after the last application, scale 0 to 4
Description: Lily fields in Taipei and I-Lan counties were selected for this experiment. Suspensions of the B190 and Botrytis elliptica were adjusted to about 1×10^5 cfu/ml and 1×10^3 conidia/ml, respectively, before application. 100 ppm of flusilazole (37% Emulsion, Du Pont, USA) was used for comparison. After spraying B190 or flusilazole by sprayer (MS sprayer, Taiwan), 5 ml of the spore suspension of Botrytis elliptica was sprayed onto each 100-day-old lily plant. A total of three sprays at 10-day intervals were applied. Each treatment consisted of 100 plants with 4 replicates. Every replicate was planted on a plot, which was 30 m long and 2 m wide. All the treatments were arranged based on randomized complete block design. Two weeks after the last spray, disease severity was assessed and analyzed as above-mentioned.

[3] = tested on: Botrytis elliptica; assay: B190 formulations on Botrytis elliptica infected lilies in field; conditions: B190 1 × 10^5 cfu/ml, 3 applications (10 days/interval), fourteen days after the last application, scale 0 to 4
Description: Bacillus amyloliquefaciens B190 was cultured in a flask containing 1% rice chaff and 99% de-ion water. Then the flask was positioned on a rotary shaker located in an incubator. B190 was incubated at an ambient temperature of 25±5° C. for 3 days. Thereafter, the cultured B190 was collected by means of centrifugation (3000 rpm/10 minutes; Tomy CM-60 RN, Seiko, Japan). The pellet mixed with 1% (w/v) kaolin was used as a wettable powder (WP). The pellet mixed with 0.025% (v/v) heavy mineral oil and 0.1% Tween 80 was served as an emulsion (E).
Different chemicals or adjuvants were added to the wettable powder, emulsion or B190-containing filtrate as described above for investigating their inhibitory ability on lilies in the field. These chemicals include 0.025% Ca(OH)2, 0.05% Na2CO3, 0.025% NH4NO3 and 0.025% K2HPO4. The adjuvants comprise 0.1% Tween 80 and 0.05% mineral oil.
Unformulated B. amyloliquefaciens B190 and 100 p.p.m. flusilazole were used as controls. In addition, uninoculated and inoculated lily plants with B. elliptica were also included as controls. Applications of these treatments were carried out when flowering tissues reached 100 to 120 mm in diameter. Treatments were applied three times with intervals of 10 days. […] After inoculating B. elliptica for ten days, disease severity was scored as described above.

In the case of C[Si](Cn1cncn1)(c1ccc(F)cc1)c1ccc(F)cc1 [Flusilazole, flusilazole], the Disease severity [1] is reported as 0.32 ef, the Disease severity ([2]; I-Lan) is reported as 0.80 b and the Disease severity ([2]; Taipei) is reported as 0.31 bc. The Disease severity ([3]; I: two trials in I-Lan county) was 0.23 cd and the Disease severity ([3]; II: two trials in NTU experimental farm) was 0.39 bc.
